PubChem BioAssay (NCI)
Where “and” joins values, the source holds several entries; their conditions need not be identical. Equal entries are not always repeated.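 Five compound concentrations were applied to cells in 96-well plates for 48 hours; endpoints were derived by simple linear interpolation of the resulting dose-response curve. Here, GI50 denotes the concentration required for 50% inhibition of growth. TGI: concentration producing complete growth inhibition.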

Key:
Assay in all cases: NCI-60 cell line screen, 48 h
OVCAR-3 ovarian = test system: OVCAR-3 ovarian
OVCAR-4 ovarian = test system: OVCAR-4 ovarian
HT29 colon = test system: HT29 colon
M14 melanoma = test system: M14 melanoma
MALME-3M melanoma = test system: MALME-3M melanoma
DU-145 prostate = test system: DU-145 prostate
UO-31 renal = test system: UO-31 renal
SK-MEL-5 melanoma = test system: SK-MEL-5 melanoma
HL-60(TB) leukemia = test system: HL-60(TB) leukemia
SF-539 CNS = test system: SF-539 CNS

Compound	GI50 (OVCAR-3 ovarian)	TGI (OVCAR-3 ovarian)	GI50 (OVCAR-4 ovarian)	TGI (OVCAR-4 ovarian)	GI50 (HT29 colon)	TGI (HT29 colon)	GI50 (M14 melanoma)	TGI (M14 melanoma)	GI50 (MALME-3M melanoma)	TGI (MALME-3M melanoma)	GI50 (DU-145 prostate)	TGI (DU-145 prostate)	GI50 (UO-31 renal)	TGI (UO-31 renal)	GI50 (SK-MEL-5 melanoma)	TGI (SK-MEL-5 melanoma)	GI50 (HL-60(TB) leukemia)	TGI (HL-60(TB) leukemia)	GI50 (SF-539 CNS)	TGI (SF-539 CNS)
O=S(=O)(NCCO)c1cc[c]([Sb](=[O])([OH])[OH])cc1	> 100 µM	> 100 µM	> 100 µM	> 100 µM	> 100 µM	> 100 µM	> 100 µM	> 100 µM	> 100 µM	> 100 µM	> 100 µM	> 100 µM	> 100 µM	> 100 µM	> 100 µM	> 100 µM	> 100 µM	> 100 µM		
Cc1cc2c(=O)[nH]c(N)nc2nc1C		> 100 µM		> 100 µM		> 100 µM		> 100 µM		> 100 µM		> 100 µM		> 100 µM		> 100 µM		> 100 µM		
COC(=O)[C@@H](OC)[C@@H]1Cc2cc3cc(OC4CC(OC5CC(O)C(O)C(C)O5)C(O)C(C)O4)c(C)c(O)c3c(O)c2C(=O)[C@H]1OC1CC(OC2CC(OC3CC(C)(O)C(O)C(C)O3)C(O)C(C)O2)C(O)C(C)O1 (stereo not given in full)			0.0413 µM	0.553 µM	0.039 µM		0.0382 µM	0.157 µM	0.034 µM	0.0839 µM	0.0433 µM	> 16.5 µM	0.0335 µM	0.12 µM	0.0327 µM	0.0892 µM	0.0405 µM	0.74 µM	0.025 µM	0.082 µM
N#C/C(=C\c1cccc2cnccc12)N1N=NC2C=CC=CC21 (stereo not given)	1.91 µM	4.88 µM	2.92 µM	> 100 µM	3.5 µM	> 100 µM	7.71 µM	> 100 µM	3.24 µM	> 100 µM	3.55 µM	> 100 µM	0.602 µM	> 100 µM	3.19 µM	> 100 µM	3 µM	24.3 µM	2.65 µM	9.23 µM
COc1ccc(-c2nc(-c3nc4ccc(C(F)(F)F)cc4[nH]3)c3ccccn23)cc1	> 100 µM	> 100 µM			58.2 µM	> 100 µM	83.1 µM	> 100 µM	> 100 µM	> 100 µM	> 100 µM	> 100 µM	> 100 µM	> 100 µM	47 µM	> 100 µM	> 100 µM	> 100 µM	> 100 µM	> 100 µM
COC(=O)/C(=C\c1c(-c2ccccc2)[nH]c2ccccc12)S(C)(=O)=O	1.92 µM	3.97 µM	6.23 µM	> 100 µM	3.58 µM	46.1 µM	3.34 µM	> 100 µM	12.2 µM	44.2 µM	2.48 µM	6.11 µM	5.49 µM	28.7 µM			3.38 µM	15.1 µM	3.11 µM	11.5 µM
C[n+]1c(/C=C/c2ccc(/C=N/NC(=O)c3ccc(C(=O)N/N=C/c4ccc(/C=C/c5cn6ccccc6[n+]5C)cc4)cc3)cc2)cn2ccccc21		> 100 µM				> 100 µM		> 100 µM		> 100 µM		> 100 µM		> 100 µM		> 100 µM		67.4 µM		> 100 µM
Cc1ccc(C)c2c(N=Nc3ccccc3[N+](=O)[O-])c(O)[nH]c12		> 100 µM		> 100 µM				> 100 µM				> 100 µM		> 100 µM		> 100 µM		> 100 µM		> 100 µM
Cc1cc2c(cc1C)[n+](Cc1ccc3ccccc3n1)cn2Cc1ccc2ccccc2n1	0.628 µM	2.12 µM	1.24 µM	4.09 µM	0.331 µM	1.63 µM	0.586 µM	2.42 µM	0.783 µM	2.56 µM	1.6 µM	6.56 µM	1.33 µM	2.84 µM	0.471 µM	1.59 µM			0.899 µM	2.53 µM
O=C1N[C@H]2[C@H](O)[C@H](O)[C@@H](O)[C@H](O)[C@@H]2c2cc3c(c(O)c21)OCO3	0.275 µM and 0.347 µM		0.189 µM and 0.373 µM		0.3 µM and 0.36 µM	3.84 µM and 0.44 µM	0.229 µM and 0.0346 µM		0.266 µM and 0.275 µM		0.0101 µM	0.0963 µM and 0.102 µM	0.333 µM and 0.522 µM	2.78 µM and 0.398 µM	0.127 µM		0.194 µM and 0.0783 µM	0.331 µM and 0.0744 µM		
CCCC#CCOC(=O)c1cc([N+](=O)[O-])cc([N+](=O)[O-])c1		> 100 µM				> 100 µM		> 100 µM		69.1 µM		> 100 µM		> 100 µM		> 100 µM		> 100 µM		> 100 µM
CC(=O)NC1=C(Sc2ccc(Cl)cc2)C(=O)c2ccccc2C1=O		7.07 µM		3.34 µM		25.6 µM				8 µM		30.5 µM		4.13 µM		4.8 µM		1.63 µM		5.85 µM
COc1cc2c(cc1O)C(c1cc(O)c(O)c(OC)c1)C(O)(C(=O)O)C(CO)C2O (stereo not given)		> 100 µM		> 100 µM		> 100 µM		> 100 µM		> 100 µM		> 100 µM		> 100 µM		> 100 µM				> 100 µM
CCCCN1CCN(c2ccc3nc(-c4ccc5nc(-c6ccc(OCC)c(OCC)c6)[nH]c5c4)[nH]c3c2)CC1	0.358 µM	0.85 µM	1.48 µM	3.21 µM	0.802 µM	2.97 µM	0.314 µM	1.55 µM			1 µM	2.21 µM	2 µM	5.8 µM	1.09 µM	3.16 µM	0.704 µM	3.18 µM	1.26 µM	2.56 µM
COc1ccc(/C(=N/O)c2cc(OC)c(OC)c(OC)c2)c(OC)c1N			8.18 µM	> 100 µM	3.54 µM	> 100 µM	2.7 µM	> 100 µM	4.22 µM	> 100 µM	4.67 µM	> 100 µM	5.45 µM	> 100 µM	5.34 µM	> 100 µM	3.38 µM	14.3 µM	2.98 µM	> 100 µM
CCc1ncnc2cc(OCC3CO3)c(OC)cc12 (stereo not given)		> 100 µM		24.7 µM		> 100 µM		23.8 µM		42 µM		> 100 µM		18.4 µM		21.9 µM				25.2 µM
